Assay results published in PubChem BioAssay AID179 (DTP/NCI, 2004).
Where “and” joins values, the source holds several entries; their conditions need not be identical. Equal values may be shown once. Calls of active or inactive are those of the source.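 Rule for the calls: active = compounds giving half or more protection of infected cells from virus-caused growth loss, again on retest; inactive = the rest.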 Where a SMILES comes first, the peptide text is derived from it. The star is where a group is joined. Cbz = O=C(OCc1ccccc1)*; NHNH2 = NN*

Tested on: CEM cells HIV-1 protection, formazan growth assay
Test: NCI AIDS Antiviral Assay
Details: for IC50: measured here: growth of uninfected CEM cells
Outline: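 Human CEM cells, uninfected and HIV-1-infected, exposed to five drug concentrations; growth measured by soluble formazan assay and scored as percent protection from infection, with protecting compounds retested.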

SMILES: CC(=O)OC1C2CCC3CC2C2(SCCS2)C31 (stereo not given)
- EC50: > 200 µM
- IC50: > 200 µM

SMILES: O=C(NC1C=CCC2C(=O)N(c3ccccc3)C(=O)C12)OCc1ccccc1 (stereo not given)
- outcome: inactive

SMILES: O=C1CCC2(CC1)SCCCS2
- EC50: > 339 µM
- IC50: > 339 µM

SMILES: Cc1ccc(N=N/C(=N/NC(=O)c2cc(Cl)ccc2C(=O)c2ccccc2)c2ccc(N(CCC#N)CCC#N)cc2C)cc1
- EC50: > 200 µM
- IC50: 11.7 µM

SMILES: O=C(CC(NC(=O)C(F)(F)F)C(=O)O)OCc1ccccc1 (stereo not given)
- EC50: > 200 µM
- IC50: > 200 µM

SMILES: CCOC(=O)C1(C#N)C2(C#N)C(N)=NC(ON=C(C)C)(ON=C(C)C)C12C#N (stereo not given)
- EC50: > 200 µM
- IC50: > 200 µM

SMILES: Cc1cn(C2CC(/[N+]([O-])=N\Nc3ccc([N+](=O)[O-])cc3)C(CO)O2)c(=O)[nH]c1=O (stereo not given)
- EC50: > 200 µM

SMILES: CC(CO)(CO)N1C(=O)c2cccc3cc([N+](=O)[O-])cc(c23)C1=O
- EC50: > 200 µM
- IC50: > 200 µM

SMILES: N#Cc1c(-c2ccccc2)c(C#N)c(=O)n(C2OC(CO)C(O)C(O)C2O)c1S (stereo not given)
- EC50: > 200 µM
- IC50: > 200 µM and 141 µM

SMILES: O=C(NCCCNC(=O)c1ccc2c(O)c(O)ccc2c1)c1ccc2c(O)c(O)ccc2c1
- EC50: > 151 µM
- IC50: 15.5 µM

SMILES: CN(C)c1ccc(/C=C(/C#N)c2ccc(Cl)cc2)cc1
- EC50: > 100 µM
- IC50: 1.23 µM

SMILES: O=C(OCC1OC(n2nc(Cn3nnc(-c4cccnc4)n3)n(-c3cccc4ccccc34)c2=S)C(OC(=O)c2ccccc2)C1OC(=O)c1ccccc1)c1ccccc1 (stereo not given)
- EC50: > 100 µM
- IC50: > 100 µM

SMILES: ClC(Cl)(Cl)C1CCOC1n1nc2ccccc2n1 (stereo not given)
- EC50: > 200 µM
- IC50: > 200 µM

SMILES: c1ccc2c(c1)CCc1c(-c3noc4c3CCc3ccccc3-4)noc1-2
- EC50: > 148 µM
- IC50: > 148 µM

SMILES: Cc1cccc(/C=N/NC(=S)Nc2ccccc2)n1
- EC50: > 200 µM
- IC50: 2 µM

SMILES: O=Nc1ccc(N(CCO)CCO)cc1
- EC50: > 200 µM
- IC50: 2.95 µM

SMILES: CC1=N/C(=C\c2ccc(-c3ccccc3)cc2)C(=O)O1
- EC50: > 20 µM
- IC50: > 20 µM

SMILES: COc1cccc(C2c3cc4c(cc3OC(N3CCCCC3)C2C)OCO4)c1OC (stereo not given)
- EC50: > 200 µM
- IC50: 1.7 µM

SMILES: Cc1nc(Cl)nc2c1C(=O)Nc1ccccc1N2
- EC50: > 52.5 µM
- IC50: 26.9 µM

SMILES: CCC1CC2CC3c4[nH]c5ccc(OC)cc5c4CCN(C2)C13 (stereo not given)
- outcome: inactive

SMILES: COc1ccc2cc1-c1cc(ccc1O)CC1NCCc3cc4c(cc31)Oc1c(c(OC)c(OC)c3c1[C@H](C2)N(C)CC3)O4 (stereo not given in full)
- EC50: > 6.03 µM
- IC50: > 6.03 µM

SMILES: O=C1C(/C=C/c2ccc(Cl)cc2)=NNC2N1N=C1NC(=O)C3(NN12)c1ccccc1-c1ccccc13 (stereo not given)
- EC50: > 200 µM
- IC50: 132 µM

SMILES: OCC(O)C(O)c1nn(-c2ccccc2)c2nc3cc(Cl)c(Cl)cc3nc12 (stereo not given)
- outcome: inactive

SMILES: CCN(CC)CC(C(=O)Nc1c(C)cccc1C)/C(C)=N\NC(=O)c1ccncc1 (stereo not given)
- EC50: > 33.1 µM
- IC50: > 33.1 µM

SMILES: CCS(CC)(CC)CC1CCCC2=CCC(P(=O)(c3ccccc3)c3ccccc3)CC21 (stereo not given)
- EC50: > 15.5 µM
- IC50: > 15.5 µM

SMILES: O=CC(O)C(O)C(O)C(O)COC(=O)NCCCCC(=O)C(F)(F)C(F)(F)C(F)(F)C(F)(F)C(F)(F)C(F)(F)C(F)(F)F (stereo not given)
- EC50: > 200 µM
- IC50: 24 µM

SMILES: COC(=O)c1cn2ccc3ccccc3c2c1C(=O)OC
- EC50: > 200 µM
- IC50: > 100 µM

SMILES: COc1ccc(OCC(=O)O)c2c1CCC(C)C2=O (stereo not given)
- outcome: inactive

SMILES: C=C1C(=O)OC2C[C@H](C)C3CC(=O)C(C)=C3CC12 (stereo not given in full)
- EC50: > 380 µM
- IC50: 6.61 µM

SMILES: Cc1ccnc(SC(F)(F)c2nc3ccccc3o2)n1
- EC50: 0.263 µM
- IC50: 2 µM

SMILES: CCCCCCCCCCCCC(=O)CCCCC(=O)O
- outcome: inactive

SMILES: Cc1cn(C2CC(O[Si](C)(C)C(C)(C)C)C(/C=[N+](\C)[O-])O2)c(=O)[nH]c1=O (stereo not given)
- EC50: > 200 µM
- IC50: 37.2 µM

SMILES: CCCC/C=C(/CCCNCCc1ccccc1)[Si](C)(C)C
- EC50: > 81.3 µM
- IC50: > 81.3 µM

SMILES: CSc1nn(C)cc2nc(C)nc1-2
- EC50: > 200 µM
- IC50: > 200 µM

SMILES: CC1SC2=NC3=C(c4ccccc4C3=O)C(c3ccc(F)cc3)N2C1=O (stereo not given)
- EC50: > 37.2 µM
- IC50: > 37.2 µM

SMILES: CN(c1ccccc1)c1nc(=[N+]2CCCC2)ss1
- outcome: inactive

SMILES: CCN(CC)c1ccc2cc(-c3csc(-c4ccc(N(C)C)cc4)n3)c(=O)oc2c1
- EC50: > 100 µM
- IC50: 10 µM

SMILES: CCc1cccc(C)c1NC(=S)NC(=O)c1ccccc1C(=O)NC(=S)Nc1c(C)cccc1CC
- EC50: > 69.2 µM
- IC50: > 69.2 µM

SMILES: CC1=[N+]([O-])C2(CCCC2)N(O)C1(C)C
- EC50: > 200 µM
- IC50: > 200 µM

SMILES: COc1ccc(CN(Cc2ccc(OC)cc2)C(=O)CC2(O)C=CCC2)cc1 (stereo not given)
- EC50: > 200 µM
- IC50: 75.9 µM

SMILES: CC1CCC(=O)C(C(=O)CC2CC(=O)N(C)C(=O)C2)C1 (stereo not given)
- EC50: > 126 µM
- IC50: > 126 µM

SMILES: CC1C=C(OC(=O)c2ccccc2)C(=O)C(n2cc(F)c(=O)[nH]c2=O)O1 (stereo not given)
- outcome: inactive

SMILES: COC(=O)c1ccc(CO/N=C(\c2ccccc2)c2ccccn2)cc1
- EC50: > 162 µM
- IC50: 57.5 µM

SMILES: CC(=O)NNc1nc(C)c(C(=O)/C=C/c2ccc(N(C)C)cc2)s1
- EC50: > 55 µM
- IC50: > 55 µM

SMILES: O=c1ccc2ccccc2c2ccccc12
- EC50: > 117 µM
- IC50: 1.66 µM

SMILES: CN1C(=O)C(=O)N2c3ccc(Cl)cc3C3(c4ccccc4)N=CC12O3 (stereo not given)
- EC50: > 36.3 µM
- IC50: 5.5 µM

SMILES: O=c1c2sc3ccccc3sc=2c(=O)c2c(Cl)c(Cl)c(Cl)c(Cl)c12
- EC50: > 126 µM
- IC50: 58.9 µM

SMILES: CC1=NN(c2ccccc2)C(=O)C1N=Nc1ccc(Br)cc1C (stereo not given)
- EC50: > 17.4 µM
- IC50: > 17.4 µM

SMILES: CCCC(=O)Nc1c(I)cc(I)c(CC(CC)C(=O)O)c1I (stereo not given)
- EC50: > 200 µM
- IC50: > 200 µM

SMILES: CCOC(=O)Nc1ccc2nc(N3CCCCC3)sc2c1
- EC50: > 85.1 µM
- IC50: 6.31 µM

SMILES: Nc1ccc(C(=O)N/C(=C\c2cccc([N+](=O)[O-])c2)c2nc3c4c(ccc3[nH]2)C(=O)c2ccccc2C4=O)cc1
- outcome: inactive

SMILES: c1ccc(C2SCc3nc4ccccc4n32)cc1 (stereo not given)
- EC50: > 141 µM
- IC50: 35.5 µM

SMILES: CC1=C(C#N)C2C(=C(C)N1)C(N)=Nc1ccccc12 (stereo not given)
- EC50: > 200 µM
- IC50: 13.5 µM

SMILES: COc1ccc(N=C2SC(=N/N=c3\sc4ccccc4n3C)SC2=Nc2ccc(OC)cc2)cc1
- EC50: > 200 µM
- IC50: 63.1 µM

SMILES: Cn1c2ccccc2c2nnc(NCCCCO)nc21
- EC50: > 200 µM
- IC50: > 200 µM

SMILES: CCCCN(C)C(=O)COc1cc2c(O)c3c(O)c(C)c4c(c13)C(=O)C(C)(O/C=C/C(OC)C(C)C(OC(C)=O)C(C)C(O)C(C)C(O)C(C)/C=C/C=C(\C)C(=O)N2)O4 (stereo not given)
- EC50: 28.2 µM
- IC50: 28.8 µM

SMILES: Cn1c(=O)[nH]c(N2CCCC2)c(C#N)c1=S
- EC50: > 200 µM
- IC50: > 200 µM

SMILES: COc1nc(OC)c2c(=O)oc(-c3ccccc3)cc2n1
- outcome: inactive

SMILES: O=C(O)c1c(Br)c(Br)c(Br)c(Br)c1-c1c2ccc(=O)cc-2oc2cc(O)ccc12
- EC50: > 200 µM
- IC50: 28.2 µM

SMILES: CC(C)CC(NC(=O)C(CO)NC(=O)OCc1ccccc1)C(=O)NC(Cc1ccc(O)cc1)C(=O)NN (stereo not drawn) (Cbz-Ser-Leu-Tyr-NHNH2; configuration not given here)
- outcome: inactive

SMILES: O=C1CCCc2cc3c(cc21)CC1(Cc2ccccc2C1)C3
- EC50: > 200 µM
- IC50: 1.29 µM

SMILES: O[C@@H]1CCC[C@@H]2NC[C@@H](c3ccc4c(c3)OCO4)[C@H]12
- EC50: > 200 µM
- IC50: > 200 µM

SMILES: OC(c1cc2ccccc2[nH]1)C1(c2cccnc2)SCCCS1 (stereo not given)
- EC50: > 200 µM
- IC50: 57.5 µM
